Assay results as given in PubChem BioAssay AID248 (DTP/NCI, 2004).
Values joined by “and” are separate entries in the source; they are usually repeats but may differ in a detail not shown here. Identical values can stand only once. Inconclusive results and toxic doses are left out.

Tested on: L1210 leukemia ip in BDF1 mice, survival T/C
Test: NCI In Vivo Anticancer Drug Screen. Data for tumor model L1210 Leukemia (intraperitoneal) in B6D2F1 (BDF1) mice
Conditions: endpoint: mean survival time, higher = longer survival
How it was run: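 In this screen, tumor-bearing mice given compound are compared to those given vehicle, and their survival values are reported as a treated-to-control quotient.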

[1] = dose: 100.0 mg/kg/injection, schedule: Q01DX001 (ip), vehicle: carboxymethylcellulose (CMC)
[2] = dose: 200.0 mg/kg/injection, schedule: Q01DX001 (ip), vehicle: carboxymethylcellulose (CMC)
[3] = dose: 100.0 mg/kg/injection, schedule: Q04DX003 (ip), vehicle: Klucel (hydroxypropylcellulose) (HPC)
[4] = dose: 200.0 mg/kg/injection, schedule: Q04DX003 (ip), vehicle: Klucel (hydroxypropylcellulose) (HPC)
[5] = dose: 400.0 mg/kg/injection, schedule: Q04DX003 (ip), vehicle: Klucel (hydroxypropylcellulose) (HPC)
[6] = dose: 100.0 mg/kg/injection, schedule: Q04DX003 (ip), vehicle: saline with Tween-80
[7] = dose: 200.0 mg/kg/injection, schedule: Q04DX003 (ip), vehicle: saline with Tween-80
[8] = dose: 400.0 mg/kg/injection, schedule: Q04DX003 (ip), vehicle: saline with Tween-80

Compound: CCN1/C(=C/C=C/C=C/c2sc3ccccc3[n+]2CC)Sc2ccccc21
- T/C (dose: 0.04 mg/kg/injection, schedule: Q01DX009 (ip), vehicle: saline): 110 % of control
- T/C (dose: 0.08 mg/kg/injection, schedule: Q01DX009 (ip), vehicle: saline): 93 % of control
- T/C (dose: 0.09 mg/kg/injection, schedule: Q01DX009 (ip), vehicle: saline): 117 % of control
- T/C (dose: 0.09 mg/kg/injection, schedule: Q04DX003 (ip), vehicle: saline): 102 % of control
- T/C (dose: 0.19 mg/kg/injection, schedule: Q01DX009 (ip), vehicle: saline): 122 % of control
- T/C (dose: 0.19 mg/kg/injection, schedule: Q04DX002 (ip), vehicle: saline): 102 % of control
- T/C (dose: 0.19 mg/kg/injection, schedule: Q04DX003 (ip), vehicle: saline): 102 % of control
- T/C (dose: 0.32 mg/kg/injection, schedule: Q01DX009 (ip), vehicle: saline): 88 % of control
- T/C (dose: 0.37 mg/kg/injection, schedule: Q01DX001 (ip), vehicle: saline): 95 % of control
- T/C (dose: 0.38 mg/kg/injection, schedule: Q01DX009 (ip), vehicle: saline): 96 % of control
- T/C (dose: 0.38 mg/kg/injection, schedule: Q04DX002 (ip), vehicle: saline): 103 % of control
- T/C (dose: 0.38 mg/kg/injection, schedule: Q04DX003 (ip), vehicle: saline): 105 % of control
- T/C (dose: 0.39 mg/kg/injection, schedule: Q01DX009 (ip), vehicle: saline): 109 % of control
- T/C (dose: 0.62 mg/kg/injection, schedule: Q01DX001 (ip), vehicle: other): 105 % of control
- T/C (dose: 0.75 mg/kg/injection, schedule: Q01DX001 (ip), vehicle: saline): 102 % of control
- T/C (dose: 0.76 mg/kg/injection, schedule: Q04DX002 (ip), vehicle: saline): 107 % of control
- T/C (dose: 0.76 mg/kg/injection, schedule: Q04DX003 (ip), vehicle: saline): 103 % of control
- T/C (dose: 0.8 mg/kg/injection, schedule: Q01DX001 (ip), vehicle: saline): 105 % of control
- T/C (dose: 1.25 mg/kg/injection, schedule: Q01DX001 (ip), vehicle: other): 110 % of control
- T/C (dose: 1.5 mg/kg/injection, schedule: Q01DX001 (ip), vehicle: saline): 105 % of control
- T/C (dose: 1.5 mg/kg/injection, schedule: Q04DX002 (ip), vehicle: saline): 110 % of control
- T/C (dose: 2.5 mg/kg/injection, schedule: Q01DX001 (ip), vehicle: other): 115 % of control
- T/C (dose: 3.0 mg/kg/injection, schedule: Q01DX001 (ip), vehicle: saline): 110 % of control
- T/C (dose: 5.0 mg/kg/injection, schedule: Q01DX001 (ip), vehicle: other): 107 % of control

Compound: COc1cc(/C=C\C(=O)c2cccc([N+](=O)[O-])c2)cc(OC)c1OC
- T/C (dose: 100.0 mg/kg/injection, schedule: Q04DX002 (ip), vehicle: Klucel (hydroxypropylcellulose) (HPC)): 96 % of control
- T/C (dose: 200.0 mg/kg/injection, schedule: Q04DX002 (ip), vehicle: Klucel (hydroxypropylcellulose) (HPC)): 89 % of control
- T/C (dose: 400.0 mg/kg/injection, schedule: Q04DX002 (ip), vehicle: Klucel (hydroxypropylcellulose) (HPC)): 100 % of control

Compound: N#Cc1ccccc1-c1ccccc1C#N
- T/C [1]: 105 % of control
- T/C [2]: 107 % of control
- T/C (dose: 400.0 mg/kg/injection, schedule: Q01DX001 (ip), vehicle: carboxymethylcellulose (CMC)): 107 % of control

Compound: Nc1cc(Cl)cc2c1-c1c(Cl)cc(Cl)cc1C2
- T/C (dose: 100.0 mg/kg/injection, schedule: Q01DX009 (ip), vehicle: Klucel (hydroxypropylcellulose) (HPC)): 102 % of control
- T/C [3]: 96 % of control
- T/C [4]: 104 % of control
- T/C (dose: 400.0 mg/kg/injection, schedule: Q01DX009 (ip), vehicle: Klucel (hydroxypropylcellulose) (HPC)): 102 % of control
- T/C [5]: 104 % of control

Compound: O=C1CC(OC(=O)c2ccccc2)(c2ccccc2)OC(c2ccccc2)=C1c1ccccc1 (stereo not drawn)
- T/C (dose: 100.0 mg/kg/injection, schedule: Q01DX001 (ip), vehicle: saline): 101 % of control
- T/C [3]: 97 % of control
- T/C (dose: 200.0 mg/kg/injection, schedule: Q01DX001 (ip), vehicle: saline): 104 % of control
- T/C [4]: 100 % of control
- T/C (dose: 400.0 mg/kg/injection, schedule: Q01DX001 (ip), vehicle: saline): 96 % of control
- T/C [5]: 100 % of control

Compound: Nn1cnc2c(SCc3ccccc3)ncnc21
- T/C (dose: 50.0 mg/kg/injection, schedule: Q01DX001 (ip), vehicle: carboxymethylcellulose (CMC)): 101 % of control
- T/C (dose: 62.0 mg/kg/injection, schedule: Q01DX015 (ip), vehicle: carboxymethylcellulose (CMC)): 115 % of control
- T/C (dose: 93.0 mg/kg/injection, schedule: Q01DX015 (ip), vehicle: carboxymethylcellulose (CMC)): 121 % of control
- T/C [1]: 101 % of control
- T/C (dose: 140.0 mg/kg/injection, schedule: Q01DX015 (ip), vehicle: carboxymethylcellulose (CMC)): 158 % of control
- T/C [2]: 122 % of control

Compound: N=C(N=C(Cc1ccccc1)c1ccccc1)c1ccccc1
- T/C (dose: 100.0 mg/kg/injection, schedule: Q01DX001 (ip), vehicle: Klucel (hydroxypropylcellulose) (HPC)): 92 % of control
- T/C [3]: 104 % of control
- T/C (dose: 200.0 mg/kg/injection, schedule: Q01DX001 (ip), vehicle: Klucel (hydroxypropylcellulose) (HPC)): 92 % of control
- T/C [4]: 96 % of control
- T/C (dose: 400.0 mg/kg/injection, schedule: Q01DX001 (ip), vehicle: Klucel (hydroxypropylcellulose) (HPC)): 94 % of control
- T/C [5]: 91 % of control

Compound: C[n+]1ccc(/C(N)=N/O)cc1
- T/C (dose: 25.0 mg/kg/injection, schedule: Q01DX009 (ip), vehicle: saline): 94 % of control and 106 % of control
- T/C (dose: 50.0 mg/kg/injection, schedule: Q01DX009 (ip), vehicle: saline): 104 % of control and 105 % of control
- T/C (dose: 100.0 mg/kg/injection, schedule: Q01DX009 (ip), vehicle: saline): 101 % of control and 107 % of control
- T/C (dose: 100.0 mg/kg/injection, schedule: Q04DX002 (ip), vehicle: saline): 105 % of control
- T/C (dose: 100.0 mg/kg/injection, schedule: Q04DX003 (ip), vehicle: saline): 101 % of control
- T/C (dose: 200.0 mg/kg/injection, schedule: Q04DX002 (ip), vehicle: saline): 107 % of control
- T/C (dose: 200.0 mg/kg/injection, schedule: Q04DX003 (ip), vehicle: saline): 97 % of control
- T/C (dose: 400.0 mg/kg/injection, schedule: Q04DX002 (ip), vehicle: saline): 96 % of control

Compound: O=Cc1csc2ncccc12
- T/C [6]: 103 % of control
- T/C [7]: 100 % of control
- T/C [8]: 105 % of control

Compound: O=[N+]([O-])c1ccc2c(c1)S(=O)c1ccccc1-2 (stereo not drawn)
- T/C [6]: 109 % of control
- T/C [7]: 94 % of control

Compound: Cc1ccc2c(C)c3c(ccc4ccccc43)c[n+]2c1
- T/C (dose: 0.36 mg/kg/injection, schedule: Q01DX015 (ip), vehicle: saline): 110 % of control
- T/C (dose: 0.55 mg/kg/injection, schedule: Q01DX015 (ip), vehicle: saline): 104 % of control
- T/C (dose: 0.83 mg/kg/injection, schedule: Q01DX015 (ip), vehicle: saline): 110 % of control
- T/C (dose: 1.25 mg/kg/injection, schedule: Q01DX015 (ip), vehicle: saline): 105 % of control and 112 % of control
- T/C (dose: 2.5 mg/kg/injection, schedule: Q01DX015 (ip), vehicle: saline): 103 % of control
- T/C (dose: 2.5 mg/kg/injection, schedule: Q04DX003 (ip), vehicle: saline): 101 % of control
- T/C (dose: 5.0 mg/kg/injection, schedule: Q01DX001 (ip), vehicle: saline): 94 % of control
- T/C (dose: 5.0 mg/kg/injection, schedule: Q01DX015 (ip), vehicle: saline): 111 % of control
- T/C (dose: 5.0 mg/kg/injection, schedule: Q04DX003 (ip), vehicle: saline): 95 % of control
- T/C (dose: 10.0 mg/kg/injection, schedule: Q01DX001 (ip), vehicle: saline): 96 % of control
- T/C (dose: 10.0 mg/kg/injection, schedule: Q01DX015 (ip), vehicle: saline): 110 % of control and 117 % of control
- T/C (dose: 10.0 mg/kg/injection, schedule: Q04DX003 (ip), vehicle: saline): 111 % of control
- T/C (dose: 20.0 mg/kg/injection, schedule: Q01DX001 (ip), vehicle: saline): 102 % of control
- T/C (dose: 20.0 mg/kg/injection, schedule: Q04DX003 (ip), vehicle: saline): 113 % of control

Compound: O=C(COc1ccccc1[N+](=O)[O-])Nc1cccnc1
- T/C [6]: 104 % of control
- T/C [7]: 98 % of control
- T/C [8]: 98 % of control
